From US20230159527A1, “COMPOUNDS AS BCL-2 INHIBITORS” (Fochon Pharmaceuticals, Ltd., priority 2020, published 2023)
Like-named read-outs stand apart in the source and are kept apart here.

Columns and labels:
RS4;11-BCL-2 G101V cells = experiment: Cell proliferation assay, engineered RS4;11 cells stably overexpressing BCL-2 G101V (MTS, 168 h); type: cell-based; conditions: read-out: RS4, 11 BCL2- G101V
Experimental: MTS testing kit was purchased from Promega (Madison, Wis., USA). The RPMI-1640, Fetal bovine serum and Penicillin-Streptomycin were purchased from BI (Biological Industries, Beit Haemek, Israel). Puromycin was purchased from Beyotime (shanghai, China). Dimethyl sulfoxide (DMSO) was purchased from Sigma (St. Louis, Mo., USA). RS4;1l-BCL-2 G101V and RS4;11-BCL-2 F104L cells were cultured in RPM11640 supplemented with 1 ug/mL puromycin, 100 U/mL Penicillin-Streptomycin and 10% FBS.
To investigate whether a compound is able to inhibit the activity of BCL-2 mutation in cells, a mechanism-based assay using engineered cell lines stably overexpressing BCL-2 mutation ([…] and […]) was developed. In this assay, the inhibition of BCL-2 mutation was reflected by the inhibition of cell proliferation of RS4;11-BCL-2 G101V and RS4;11-BCL-2 F104L cells. Cells were plated into 96-well plates at optimized cell density (RS4;11-BCL-2 G101V: 5000 cells/well; RS4;11-BCL-2 F104L: 5000 cells/well). Plates were incubated at 37° C., with 5% CO2 for 4 h. Compounds were serially diluted to the final-concentrations of 10000, 3333.3, 1111.1, 370.4, 123.5, 41.2, 13.7, 4.6 and 1.4 nM and added to the plates. Plates were incubated at 37° C., with 5% CO2 for 168 h. 20 μl MTS was added into each well and the plates were incubated at 37° C., with 5% CO2 exactly for 2 h. The absorbance was measured by a microplate reader at 490 nm. IC50 values were calculated using GraphPad Prism 5.0 software.

Toledo cells = experiment: Cell proliferation assay, Toledo cells (MTS, 72 h); type: cell-based; conditions: Homo sapiens, Toledo cells, MTS, read-out: Toledo IC50
In short: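 Toledo cells (30000/well, RPMI-1640 with 10% FBS) were preincubated for 4 h. They were then exposed to nine compound concentrations from 10000 to 1.5 nM for 72 h at 37 °C, 5% CO2. MTS was added for 2 h and absorbance read at 490 nm to give IC50.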

| SMILES | IC50 (RS4;11-BCL-2 G101V cells; Homo sapiens, RS4-11, 168 h) [nM] | IC50 (RS4;11-BCL-2 G101V cells) [nM] | IC50 (Toledo cells) [nM] |
| --- | --- | --- | --- |
| CC(C)c1ccccc1[C@@H]1CCCN1C1CC2(CCN(c3ccc(C(=O)NS(=O)(=O)c4cc5c(c([N+](=O)[O-])c4)N[C@@H]([C@H]4CC[C@](C)(O)CC4)CO5)c(Oc4cc5cc[nH]c5nc4OC4CN(C)C4)c3)CC2)C1 (single isomer, unassigned) [Example D-201, N-(((S)-3-((1r,4S)-4-hydroxy-4-methylcyclohexyl)-5-nitro-3,4-dihydro-2H-benzo[b][1,4]oxazin-7-yl)sulfonyl)-4-(2-((R or S)-2-(2-isopropylphenyl)pyrrolidin-1-yl)-7-azaspiro[3.5]nonan-7-yl)-2-((6-((1-methylazetidin-3-yl)oxy)-1H-pyrrolo[2,3-b]pyridin-5-yl)oxy)benzamide] | 1 |  | 1 |
| CC(C)c1ccccc1[C@@H]1CCCN1C1CC2(CCN(c3ccc(C(=O)NS(=O)(=O)c4cc5c(c([N+](=O)[O-])c4)N[C@@H]([C@H]4CC[C@](C)(O)CC4)CO5)c(Oc4cc5cc[nH]c5nc4O[C@H]4CCN(C)C4)c3)CC2)C1 (single isomer, unassigned) [Example D-226, N-(((S)-3-((1r,4S)-4-hydroxy-4-methylcyclohexyl)-5-nitro-3,4-dihydro-2H-benzo[b][1,4]oxazin-7-yl)sulfonyl)-4-(2-((R or S)-2-(2-isopropylphenyl)pyrrolidin-1-yl)-7-azaspiro[3.5]nonan-7-yl)-2-((6-(((5)-1-methylpyrrolidin-3-yl)oxy)-1H-pyrrolo[2,3-b]pyridin-5-yl)oxy)benzamide] | 13 |  | 1 |
| CCOc1nc2[nH]ccc2cc1Oc1cc(N2CCC3(CC2)CN([C@H]2CCC[C@H]2c2ccccc2C(C)C)C3)ccc1C(=O)NS(=O)(=O)c1cc2c(c([N+](=O)[O-])c1)N[C@@H]([C@H]1CC[C@](C)(O)CC1)CO2 (single isomer, unassigned) [Example D-98, 2-((6-ethoxy-1H-pyrrolo[2,3-b]pyridin-5-yl)oxy)-N-((S)-3-((1r,4S)-4-hydroxy-4-methylcyclohexyl)-5-nitro-3,4-dihydro-2H-benzo[b] [1,4]oxazin-7-yl)sulfonyl)-4-(2-((1S,2S or 1R,2R)-2-(2-isopropylphenyl)cyclopentyl)-2,7-diazaspiro[3.5]nonan-7-yl)benzamide] | 1 |  | 1 |
| CC(C)c1ccccc1[C@@H]1CN(C(=O)C2CC2)CCN1C1CC2(CCN(c3ccc(C(=O)NS(=O)(=O)c4cc5c(c([N+](=O)[O-])c4)N[C@@H]([C@H]4CC[C@](C)(O)CC4)CO5)c(Oc4cnc5[nH]cc(F)c5c4)c3)CC2)C1 (single isomer, unassigned) [Example D-82, 4-(2-((R or S)-4-(cyclopropanecarbonyl)-2-(2-isopropylphenyl)piperazin-1-yl)-7-azaspiro[3.5]nonan-7-yl)-2-((3-fluoro-1H-pyrrolo[2,3-b]pyridin-5-yl)oxy)-N-(((S)-3-((1r,4S)-4-hydroxy-4-methylcyclohexyl)-5-nitro-3,4-dihydro-2H-benzo[b][1,4]oxazin-7-yl)sulfonyl)benzamide] | 19 |  | 1 |
| CC(C)c1ccccc1[C@@H]1CN(S(C)(=O)=O)CCN1C1CC2(CCN(c3ccc(C(=O)NS(=O)(=O)c4cc5c(c([N+](=O)[O-])c4)N[C@@H]([C@H]4CC[C@](C)(O)CC4)CO5)c(Oc4cnc5[nH]cc(F)c5c4)c3)CC2)C1 (single isomer, unassigned) [Example D-80, 2-((3-fluoro-1H-pyrrolo[2,3-b]pyridin-5-yl)oxy)-N-(((S)-3-((1r,4S)-4-hydroxy-4-methylcyclohexyl)-5-nitro-3,4-dihydro-2H-benzo[b] [1,4]oxazin-7-yl)sulfonyl)-4-(2-((R or S)-2-(2-isopropylphenyl)-4-(methylsulfonyl)piperazin-1-yl)-7-azaspiro[3.5]nonan-7-yl)benzamide] | 8 |  | 1 |

Further lines, with some results ahead:

| IC50 (RS4;11-BCL-2 G101V cells; Homo sapiens, RS4-11, 168 h) [nM] | IC50 (RS4;11-BCL-2 G101V cells) [nM] | SMILES | IC50 (Toledo cells) [nM] |
| --- | --- | --- | --- |
|  | 18 | CC(C)c1ccccc1[C@@H]1CCC[C@@H]1N1CC2(CCN(c3ccc(C(=O)NS(=O)(=O)c4ccc(NC[C@H]5CC[C@](C)(O)CC5)c([N+](=O)[O-])c4)c(Oc4cnc5[nH]cc(F)c5c4)c3)CC2)C1 (single isomer, unassigned) [Example D-34a, 2-((3-fluoro-1H-pyrrolo[2,3-b]pyridin-5-yl)oxy)-N-((4-((1r,4r)-4-hydroxy-4-methylcyclohexyl)methyl)amino)-3-nitrophenyl) sulfonyl)-4-(2-((1S,2S or 1R,2R)-2-(2-isopropylphenyl)cyclopentyl)-2,7-diazaspiro[3.5]nonan-7-yl)benzamide] | 1 |
| 1 |  | CC(C)c1ccccc1[C@@H]1CCCN1C1CC2(CCN(c3ccc(C(=O)NS(=O)(=O)c4cc5c(c([N+](=O)[O-])c4)N[C@@H]([C@H]4CC[C@](C)(O)CC4)CO5)c(Oc4cc5cc[nH]c5nc4OCCN4CCOCC4)c3)CC2)C1 (single isomer, unassigned) [Example D-63, N-(((S)-3-((1r,4S)-4-hydroxy-4-methylcyclohexyl)-5-nitro-3,4-dihydro-2H-benzo[b][1,4]oxazin-7-yl)sulfonyl)-4-(2-((R or S)-2-(2-isopropylphenyl)pyrrolidin-1-yl)-7-azaspiro[3.5]nonan-7-yl)-2-((6-(2-morpholinoethoxy)-1H-pyrrolo[2,3-b]pyridin-5-yl)oxy) benzamide] | 1 |
| 17 |  | CC(C)c1ccccc1[C@@H]1CCCN1C1CC2(CCN(c3ccc(C(=O)NS(=O)(=O)c4cc5c(c([N+](=O)[O-])c4)N[C@@H]([C@H]4CC[C@](C)(O)CC4)CO5)c(Oc4cc5cc[nH]c5nc4OC4COC4)c3)CC2)C1 (single isomer, unassigned) [Example D-72, N-(((S)-3-((1r,4S)-4-hydroxy-4-methylcyclohexyl)-5-nitro-3,4-dihydro-2H-benzo[b][1,4]oxazin-7-yl)sulfonyl)-4-(2-((R or S)-2-(2-isopropylphenyl)pyrrolidin-1-yl)-7-azaspiro[3.5]nonan-7-yl)-2-((6-(oxetan-3-yloxy)-1H-pyrrolo[2,3-b]pyridin-5-yl)oxy) benzamide] | 1 |
| 19 |  | CC(C)c1ccccc1[C@@H]1CCC[C@@H]1N1CC2(CCN(c3ccc(C(=O)NS(=O)(=O)c4cc5c(c([N+](=O)[O-])c4)N[C@@H]([C@H]4CC[C@](C)(O)CC4)CO5)c(Oc4cc5cc[nH]c5nc4Cl)c3)CC2)C1 (single isomer, unassigned) [Example D-101, 2-((6-chloro-1H-pyrrolo2,3-b]pyridin-5-yl)oxy)-N-(((S)-3-((1r,4S)-4-hydroxy-4-methylcyclohexyl)-5-nitro-3,4-dihydro-2H-benzo[b] [1,4]oxazin-7-yl)sulfonyl)-4-(2-((1S,2S or 1R,2R)-2-(2-isopropylphenyl)cyclopentyl)-2,7-diazaspiro[3.5] nonan-7-yl)benzamide] | 1 |
| 1 |  | CCOc1nc2[nH]ccc2cc1Oc1cc(N2CCC3(CC2)CN([C@H]2CCC[C@H]2c2ccccc2C(C)C)C3)ccc1C(=O)NS(=O)(=O)c1ccc(NC[C@H]2CC[C@](C)(O)CC2)c([N+](=O)[O-])c1 (single isomer, unassigned) [Example D-92, 2-((6-ethoxy-1H-pyrrolo[2,3-b]pyridin-5-yl)oxy)-N-((4-((((1r,4r)-4-hydroxy-4-methylcyclohexyl)methyl)amino)-3-nitrophenyl)sulfonyl)-4-(2-((1S,2S or 1R,2R)-2-(2-isopropylphenyl)cyclopentyl)-2,7-diazaspiro[3.5]nonan-7-yl)benzamide] | 1 |
| 2 |  | CCOc1nc2[nH]ccc2cc1Oc1cc(N2CCC3(CC2)CN([C@H]2CCC[C@H]2c2ccccc2C(C)C)C3)ccc1C(=O)NS(=O)(=O)c1cnc(NC[C@H]2CC[C@](C)(O)CC2)c([N+](=O)[O-])c1 (single isomer, unassigned) [Example A-161, 2-((6-ethoxy-1H-pyrrolo[2,3-b]pyridin-5-yl)oxy)-N-((6-(((1r,4r)-4-hydroxy-4-methylcyclohexyl)methyl)amino)-5-nitropyridin-3-yl)sulfonyl)-4-(2-((1S,2S or 1R,2R)-2-(2-isopropylphenyl)cyclo-pentyl)-2,7-diazaspiro[3.5]nonan-7-yl) benzamide] | 1 |
| 14 |  | CC(C)c1ccccc1[C@@H]1CCC[C@@H]1N1CC2(CCN(c3ccc(C(=O)NS(=O)(=O)c4cc5c(c([N+](=O)[O-])c4)N[C@@H]([C@H]4CC[C@](C)(O)CC4)CO5)c(Oc4cc5c(F)c[nH]c5nc4Cl)c3)CC2)C1 (single isomer, unassigned) [Example D-106, 2-((6-chloro-3-fluoro-1H-pyrrolo [2,3-b]pyridin-5-yl)oxy)-N-(((S)-3-((1r,4S)-4-hydroxy-4-methylcyclohexyl)-5-nitro-3,4-dihydro-2H-benzo[b][1,4]oxazin-7-yl)sulfonyl)-4-(2-((1S,2S or 1R,2R)-2-(2-isopropylphenyl)cyclopentyl)-2,7-diazaspiro[3.5]nonan-7-yl)benzamide] | 1 |
